Results on 1 compound are retold here after US20130273138A1, “TRANSDERMAL FORMULATIONS OF GERANYLGERANYLACETONE” (COYOTE PHARMACEUTICALS, INC., priority 2012, published 2013).

Structures are written as SMILES.

The nature of the series: Dissolution of GGA patch (HPLC refractive index detector). It is filed as physicochemical. Particulars: 3.2 cm×3 cm patch, 10 mg GGA; 24 hour time point; acetonitrile as the media. Here is the method: The assembly was then clipped to two pins to sink the membrane-patch assembly to the bottom of the vessel and remains at the fixed position.
Two chromatograms (one standard of 0.05 mg/mL and one sample taken at 24 hour time point) in FIGS. 1A and 1B illustrate the dissolution results. Nearly all GGA in the membrane was released according to this specific dissolution setting (i.e., acetonitrile as the media).

For `CC(=O)CC/C=C(\C)CC/C=C(\C)CC/C=C(\C)CCC=C(C)C` [GGA, Geranylgeranylacetone], the “GGA released from patch (dissolution)” value is on record as “Nearly all”.
